Measured values: patent US12286474B2, “Anti-CD38 antibodies for treatment of acute myeloid leukemia” (Janssen Biotech, Inc., priority 2014, dated 2025)

Legend:
NB-4 AML cell line [1] = experiment: CD38 surface expression by FACS with PE-labeled anti-CD38 antibody; assay type: cell-based; conditions: 24 hours; for PE-CD38 molecules/cell: NB-4
Method: Effect of ATRA on CD38 surface expression was assessed in NB-4 AML cell line. Tumor cells were incubated at 37° C. for 24 hours in the presence or absence of 10 nM or 100 nM ATRA. After 24 hour incubation, the cells were harvested and stained for CD38. ATRA induced ˜10-fold increase in CD38 receptors in the NB-4 cell line. CD38 surface expression was assessed using FACS using PE-labeled anti-CD38 antibody (R&D Systems) (Table 2).

MOLM-13 [2] = experiment: In vitro ADCC with PBMC effector cells; assay type: cell-based; conditions: PBMC effector cells at ratio 50:1, 6 hours
Method: (§1) In vitro ADCC assays were performed using AML tumor cell lines and Peripheral Blood Mononuclear Cells (PBMC) as effector cells at a ratio of 50:1. One hundred μl of target (tumor) cells (1×10^4 cells) were added to wells of 96-well U-bottom plates. An additional 100 μl was added with or without antibody, and the plates were incubated for 30 minutes at room temperature (RT) before adding effector cells (PBMC). Seventy five μl of PBMCs at concentration 6.66×10^6 cells/ml was added to the wells of the plates, and the plates were incubated at 37° C. for 6 hours. Plates were centrifuged at 250 g for 4 minutes, 50 μl of supernatant removed per well and cell lysis was measured using the CellTiter-Glo® assay (Promega).

ML-2 [3] = experiment: In vitro ADCC with PBMC effector cells; assay type: cell-based; conditions: PBMC effector cells at ratio 50:1, 6 hours
Method: as §1

MV-4-11 [4] = experiment: In vitro ADCC with PBMC effector cells; assay type: cell-based; conditions: PBMC effector cells at ratio 50:1, 6 hours
Method: as §1

NB4 [5] = experiment: In vitro ADCC with PBMC effector cells; assay type: cell-based; conditions: PBMC effector cells at ratio 50:1, 6 hours
Method: as §1

MOLM-16 [6] = experiment: In vitro ADCC with PBMC effector cells; assay type: cell-based; conditions: PBMC effector cells at ratio 50:1, 6 hours
Method: as §1

THP-1 [7] = experiment: In vitro ADCC with PBMC effector cells; assay type: cell-based; conditions: PBMC effector cells at ratio 50:1, 6 hours
Method: as §1

AML 8096 model = experiment: Patient-derived xenograft (PDX) AML 8096 model, leukemic burden; assay type: in vivo, NSG mice; conditions: spleen, i.p. 10 mg/kg once a week, 5 weeks
Description: (§2) Patient tumor models AML 3406, AML 7577 and AML 8096 were used in the study.
AML 8096 model: Leukemic cells were collected from a person with AML (FAB subtype M2). White blood cell count was 20×10e^9/L, from which 70% were blast cells. Patient had normal karyotype with wild type TP53, FLT3, NPM1, and insertion 570-587, 3GCACCC>4GCACCC in CEBPA exon1. Patient has a history of polycythemia versa, and received idarubicin/cytrabine for induction chemotherapy. Patient also received Hudrea® (hydroxyurea).
(§3) 5 million AML MNCs were T-cell depleted and transplanted via tail vein into 6-8 weeks old sub-lethally irradiated NSG mice (n=10 per group). 4 to 6 weeks post-engraftment, bone marrow aspirates were collected from each mouse and were analyzed by flow cytometry to determine the level of leukemia engraftment (% of human CD45^+CD33^+/− cells). Based on engraftment levels, mice were randomized and conditioned with either IgG1 or daratumumab (DARA, pre-dosing at 0.5 mg/kg). 24 hours later, mice were untreated (Ctrl) or treated for 5 consecutive weeks with DARA or IgG1 alone (i.p, 10 mg/kg once a week). 2-3 days after the last treatment, mice were sacrificed and bone marrow, spleen, peripheral blood and plasma were collected for analysis. […]

AML cell lines [8] = experiment: Apoptosis, summary over AML cell lines; assay type: cell-based
Method: (§4) One ml of target cells (5×10^5 cells/ml) were added to the well of a 24-well plate, together with test antibody (1 μg/ml) in the presence or absence of rabbit anti-huIgG (10 μg/ml; F(ab′)2 Fcγ-specific). Cells were incubated for 22 hours (5% CO2, 37° C.). Thereafter, cells were harvested (1000 rpm, 5 min) and washed twice in PBS (1000 rpm, 5 min). Cells were resuspended in 250 μl binding buffer (Annexin-V Apoptosis kit, BD Biosciences) according to manufacturer's instruction, followed by flow cytometry analysis.
(§5) Apoptosis was measured by both early and late apoptosis (Q2 and Q3 in FIG. 1A and FIG. 1B).

AML 7577 model = experiment: Patient-derived xenograft (PDX) AML 7577 model, leukemic burden; assay type: in vivo, NSG mice; conditions: peripheral blood, i.p. 10 mg/kg once a week, 5 weeks
Description: as §2
AML 7577 model: Leukemic cells were collected from a person with AML (FAB subtype M5). Patient had normal karyotype and following mutations: IDH2(R140Q); FLT3-ITD; DNMT3A R882H, NPM1, CEBPA insertion (SNP). Patient has a history of polycythemia versa, and received idarubicin/cytrabine for induction chemotherapy. Patient also received Hudrea® (hydroxyurea).
as §3

[9] = test system: CD38 on leukemia blasts (CD45+CD33+ positive cells); experiment: CD38 expression on leukemic blasts in PDX AML 3406 model; assay type: in vivo, NSG mice; conditions: after 5 weeks of treatment
Method: (§6) 5 million AML MNCs were T-cell depleted and transplanted via tail vein into 6-8 weeks old sub-lethally irradiated NSG mice (n=10 per group). 4 to 6 weeks post-engraftment, bone marrow aspirates were collected from each mouse and were analyzed by flow cytometry to determine the level of leukemia engraftment (% of human CD45^+CD33^+/− cells). Based on engraftment levels, mice were randomized and conditioned with either IgG1 or daratumumab (DARA, pre-dosing at 0.5 mg/kg). 24 hours later, mice were untreated (Ctrl) or treated for 5 consecutive weeks with DARA or IgG1 alone (i.p, 10 mg/kg once a week). 2-3 days after the last treatment, mice were sacrificed and bone marrow, spleen, peripheral blood and plasma were collected for analysis. Flow cytometry was performed to assess percentage of human CD45^+CD33^+ cells in the BM, SPL and PB of 3 AML patients engrafted in NSG mice (AML 3406 model: FIG. 2A; AML 7577 model: FIG. 2B, AML 8096 model: FIG. 2C) and absolute number of the human CD45^+CD33^+ cells in bone marrow (FIG. 3A), spleen (FIG. 3B) and peripheral blood (FIG. 3C) of one representative AML patient.
Effect of daratumumab on CD38 expression on leukemic blasts was assessed in one representative AML model described in Example 3 after 5 weeks of treatment with daratumumab or isotype control using PE-labeled anti-CD38 antibody (R&D Systems).

AML cell lines [10] = experiment: CDC, summary over AML cell lines; assay type: cell-based
Method: (§7) Target cells were harvested and adjusted to a concentration of 80×10^4 cells/ml. Twelve μl of target cells were added to wells of a 96-well plate, and serial dilution of antibodies added onto the cells. The wells were incubated for 15 minutes, after which human serum high in complement was added at a final concentration of 10%. Reaction mixture was incubated for 21/2 hours at 37° C., and cell lysis was measured using the CellTiter-Glo® assay (Promega).

MOLM-13 [11] = experiment: Apoptosis (Annexin-V flow cytometry); assay type: cell-based; conditions: antibody 1 μg/ml, 22 hours, early and late apoptosis
Method: as §4, §5

NB-4 AML cell line [12] = experiment: Apoptosis (Annexin-V flow cytometry); assay type: cell-based; conditions: for daratumumab-induced apoptosis: NB-4 cell line
Method: as §4, §5

ML-2 [13] = experiment: Apoptosis (Annexin-V flow cytometry); assay type: cell-based; conditions: antibody 1 μg/ml, 22 hours, early and late apoptosis
Method: as §4, §5

MV-4-11 [14] = experiment: Apoptosis (Annexin-V flow cytometry); assay type: cell-based; conditions: antibody 1 μg/ml, 22 hours, early and late apoptosis
Method: as §4, §5

MOLM-16 [15] = experiment: Apoptosis (Annexin-V flow cytometry); assay type: cell-based; conditions: antibody 1 μg/ml, 22 hours, early and late apoptosis
Method: as §4, §5

THP-1 [16] = experiment: Apoptosis (Annexin-V flow cytometry); assay type: cell-based; conditions: antibody 1 μg/ml, 22 hours, early and late apoptosis
Method: as §4, §5

AML cell lines [17] = experiment: ADCC, summary over AML cell lines; assay type: cell-based
Method: as §1

AML 3406 model = experiment: Patient-derived xenograft (PDX) AML 3406 model, leukemic burden; assay type: in vivo, NSG mice; conditions: for tumor burden (% leukemic CD45+CD33+ cells): i.p. 10 mg/kg once a week, 5 weeks
Description: as §2
AML3406 model: Patient tumor cells were positive for FLT-3ITD. Patient has a history of polycythemia versa, and received idarubicin/cytrabine for induction chemotherapy. Patient also received Hudrea® (hydroxyurea).
as §6

MOLM-13 [18] = experiment: CDC (cell lysis, CellTiter-Glo); assay type: cell-based; conditions: human serum 10%
Method: as §7

ML-2 [19] = experiment: CDC (cell lysis, CellTiter-Glo); assay type: cell-based; conditions: human serum 10%
Method: as §7

MV-4-11 [20] = experiment: CDC (cell lysis, CellTiter-Glo); assay type: cell-based; conditions: human serum 10%
Method: as §7

NB4 [21] = experiment: CDC (cell lysis, CellTiter-Glo); assay type: cell-based; conditions: human serum 10%
Method: as §7

MOLM-16 [22] = experiment: CDC (cell lysis, CellTiter-Glo); assay type: cell-based; conditions: human serum 10%
Method: as §7

THP-1 [23] = experiment: CDC (cell lysis, CellTiter-Glo); assay type: cell-based; conditions: human serum 10%
Method: as §7

CC1=C(/C=C/C(C)=C/C=C/C(C)=C/C(=O)O)C(C)(C)CCC1 [ATRA, all-trans-retinoic acid]
PE-CD38 molecules/cell (NB-4 AML cell line [1]; 10 nM ATRA): 185737 molecules/cell | PE-CD38 molecules/cell (NB-4 AML cell line [1]; 100 nM ATRA): 210570 molecules/cell | increase in CD38 receptors (NB-4 AML cell line [1]; NB-4 cell line, 10 nM or 100 nM ATRA): ~10 fold

daratumumab
ADCC (MOLM-13 [2]): 9.40% | ADCC (ML-2 [3]): 6.30% | ADCC (MV-4-11 [4]): 2.30% | ADCC (NB4 [5]): 18.30% | ADCC (MOLM-16 [6]): 18.20% | ADCC (THP-1 [7]): 11.30% | tumor burden (% leukemic CD45+CD33+ cells) (AML 8096 model): reduced tumor burden | AML cell killing by apoptosis (AML cell lines [8]): induced AML cell killing by apoptosis | tumor burden (% leukemic CD45+CD33+ cells) (AML 7577 model): reduced tumor burden | percentage of CD38-positive AML blasts ([9]; bone marrow, spleen and peripheral blood (FIG. 4B)): reduced | expression of CD38 on leukemia blasts ([9]; bone marrow): reduced expression of CD38 | expression of CD38 on leukemia blasts ([9]; peripheral blood): reduced expression of CD38 | expression of CD38 on leukemia blasts ([9]; spleen): reduced expression of CD38 | CDC (AML cell lines [10]): did not induce significant ADCC or CDC | Apoptosis (MOLM-13 [11]): 10-15% | Apoptosis (NB-4 AML cell line [12]; NB4, antibody 1 μg/ml, 22 hours, early and late apoptosis): 18% | daratumumab-induced apoptosis (NB-4 AML cell line [12]; with crosslinking antibody (FIG. 1B)): 18.3% | daratumumab-induced apoptosis (NB-4 AML cell line [12]; without crosslinking antibody (FIG. 1A)): 19.2% | Apoptosis (ML-2 [13]): 5% | Apoptosis (MV-4-11 [14]): 10-12% | Apoptosis (MOLM-16 [15]): 20-30% | Apoptosis (THP-1 [16]): 5-7% | ADCC (AML cell lines [17]): did not induce significant ADCC or CDC | total leukemic burden (number of CD45+CD33+ cells per four bones) (AML 3406 model; bone marrow, Ctrl vs Dara): no significant difference | total leukemic burden (number of CD45+CD33+ cells per μl blood) (AML 3406 model; peripheral blood): significantly reduced total leukemic burden | tumor burden (% leukemic CD45+CD33+ cells) (AML 3406 model; peripheral blood): reduced tumor burden | total leukemic burden (number of CD45+CD33+ cells per spleen) (AML 3406 model; spleen): significantly reduced total leukemic burden | tumor burden (% leukemic CD45+CD33+ cells) (AML 3406 model; spleen): reduced tumor burden | CDC (MOLM-13 [18]): 0% | CDC (ML-2 [19]): 0% | CDC (MV-4-11 [20]): 0% | CDC (NB4 [21]): 4% | CDC (MOLM-16 [22]): 5% | CDC (THP-1 [23]): 5%
